Test results from US20220348885A1, “BIOLOGICALLY RELEVANT IN VITRO SCREENING OF HUMAN NEURONS” (The Board of Trustees of the Leland Stanford Junior …, priority 2016, published 2022).
Entries after “also recorded” stand apart in the source; their conditions may differ.

What was measured:
[1] = tested on: neural co-cultures consisting of primary glial cells and glutamatergic excitatory iN cells; experiment: MEA recording of neuronal network activity, pure excitatory co-culture (Example 3); type: cell-based, human; conditions: for decrease of the frequency of total bursts / decrease of the frequency of total spikes (mean firing rate): dosed vs baseline
Procedure: Induced excitatory neurons were seeded at day 4 after induction by transcriptional activation of the neurogenic transcription factor NGN2, on 12-well MEA plates (Axion BioSystems) coated with matrigel. A total of 600,000 iN cells were plated per well. Primary glial cells were obtained by dissociating brains of mouse pups at postnatal day 3 with hippocampal and cerebellar structures being removed in advance. Dissociated brains were pre-cultured and passaged twice to remove primary neurons. Glial cells were then seeded directly on the plated iN cells at a density of 120,000 cells per well.
Recordings of spontaneous neuronal activity were performed at 1, 2, 3, and 4 weeks after plating for a period of 10 minutes each.
Neural co-cultures were produced as described under Example 1. […] Recordings were performed at week 4 in culture for 10 minutes for each condition including baseline measurements prior to compound application and test measurements following the addition of a single compound. Between baseline and test condition recordings, the plates were store in an incubator (37° C., 5% CO2) to readjust pH of the media. Each compound was applied to a different well in order to prevent secondary effects of previous treatments. First, the effect of the common compound solvent DMSO was tested by adding 0.1% to the neural co-culture medium. As depicted in FIG. 6A i and ii, DMSO alone increased the frequency of total spikes (mean firing rate) and the frequency of total bursts by 0.2 Hz and 0.018 Hz, respectively. Moreover, a minor increase in synchrony could be detected increasing the percentage of bursts within synchronized network activity by approximately 5%.

[2] = tested on: neural co-cultures consisting of primary human glial cells and a mixture of glutamatergic excitatory iN cells and GABAergic inhibitory iN cells; experiment: Bicuculline-induced seizure-like network activity on MEA and co-application of antiepileptic drugs (Example 7); type: cell-based; conditions: co-application with 1 μM bicuculline, 3 doses
Procedure: Generation of human neural co-cultures and MEA recording settings and thresholds were as described under Example 6. […] Co-application of AEDs was performed in 3 different doses and each condition was tested in 6 technical replicates.

[3] = tested on: neural co-cultures with a stronger inhibitory component (excitatory/inhibitory iN cells 50%/50%, glial cells from human primary NSCs); experiment: MEA recording of neuronal network activity, mixed excitatory/inhibitory co-culture approx. 50%/50% with human glial cells (Example 4, second experiment); type: cell-based; conditions: 50 μM, excitatory/inhibitory approx. 50%/50%, 4 weeks in culture
Procedure: In a second experiment, the effect of PTX on synchronized neuronal network activity in neural co-cultures with a stronger inhibitory component was assessed. For this purpose, a total of 100,000 excitatory iN cells and 300,000 inhibitory iN cells were plated simultaneously per well on 12-well MEA plates (Axion BioSystems) coated with matrigel. Glial cells were derived from human primary NSCs as described above and seeded directly on the plated iN cells at a density of 100,000 cells per well. Due to the different apoptosis rates of the two iN cells types mentioned earlier, the final ratio of excitatory/inhibitory neurons after 4 weeks in culture was approximately 50%/50%.
The effect of PTX was tested by adding a final concentration of 50 μM to the neural co-culture medium.

[4] = tested on: neural co-cultures consisting of primary glial cells and a mixture of glutamatergic excitatory iN cells and GABAergic inhibitory iN cells; experiment: MEA recording of neuronal network activity, mixed excitatory/inhibitory co-culture approx. 70%/30% (Example 4); type: cell-based, human; conditions: 50 μM, excitatory/inhibitory approx. 70%/30%
Procedure: Induced excitatory neurons were seeded at day 4 and induced inhibitory neurons were seeded at day 6 after induction. A total of 200000 excitatory iN cells and 200000 inhibitory iN cells were plated simultaneously per well on 12-well MEA plates (Axion BioSystems) coated with matrigel. Primary glial cells were obtained as described in Example 1, and seeded directly on the plated iN cells at a density of 100000 cells per well.
Neural co-cultures were produced as described under Example 2 resulting in excitatory/inhibitory iN cell ratio of approximately 70%/30%. Recordings of neuronal activity, threshold values, and the procedure of measuring baseline and test conditions were performed as described under Example 3. Here, the effect of PTX was tested by adding a final concentration of 50 μM to the neural co-culture medium.

## N#Cc1cc2[nH]c(=O)c(=O)[nH]c2cc1[N+](=O)[O-] [CNQX]
[1]; 20 μM, week 4 in culture
  occurrence of synchronized network activity: completely abolished
  decrease of the frequency of total bursts: 0.005 Hz
  decrease of the frequency of total spikes (mean firing rate): 0.4 Hz

## O=C1NC(=O)C(c2ccccc2)(c2ccccc2)N1 [phenytoin]
[2]
  mean firing rate, network burst duration, and synchrony: to baseline level (solvent control), or further reduced; also recorded: dose-dependent decrease

## Nc1nnc(-c2cccc(Cl)c2Cl)c(N)n1 [lamotrigine]
[2]
  mean firing rate, network burst duration, and synchrony: to baseline level (solvent control), or further reduced; also recorded: dose-dependent decrease

## picrotoxin [PTX]
[3]
  synchronized network burst pattern: extended synchronized bursts with shortening inter-burst intervals
[1]; 50 μM in 0.1% DMSO, pure excitatory culture without GABAergic cells
  change in spike and burst frequencies and synchronized network activity: largely corresponded to the changes observed upon application of 0.1% DMSO
[4]
  increase of synchrony of network bursts: ~60%
  spike and burst frequencies: increase

## NC(CCCP(=O)(O)O)C(=O)O (stereo not shown) [AP5]
[1]; 50 μM, week 4 in culture
  reduction of the average duration of bursts: about 30%
  synchronized network activity as measured by network burst percentage: reduced
  decrease of the frequency of total bursts: 0.004 Hz
  decrease of the frequency of total spikes (mean firing rate): 0.2 Hz
